Source: the NIST ThermoML archive (doi:10.1021/je0302001)

Assay: mn = molality of the nth substance listed, in mol/kg
Conditions: 101.3 kPa, Liquid; for viscosity: Capillary tube (Ostwald / Ubbelohde) method

O=[N+]([O-])[O-].O=[N+]([O-])[O-].[Zn+2] [nitric acid, zinc salt] + O
Conditions | mass density [kg/m3] | speed of sound [m/s] | viscosity [mPa·s]
313.15 K, m1 = 0.3388 | – | 1540.3 | –
313.15 K, m1 = 0.6111 | – | 1548.3 | –
313.15 K, m1 = 0.6405 | – | 1550.9 | –
313.15 K, m1 = 1.113 | – | 1571.8 | –
313.15 K, m1 = 1.258 | – | 1580.9 | –
313.15 K, m1 = 1.551 | – | 1595.3 | –
313.15 K, m1 = 1.906 | – | 1613.8 | –
313.15 K, m1 = 2.145 | – | 1624.5 | –
313.15 K, m1 = 2.29 | – | 1630.2 | –
313.15 K, m1 = 2.292 | – | 1631.4 | –
313.15 K, m1 = 2.344 | – | 1634.6 | –
313.15 K, m1 = 2.91 | – | 1659.9 | –
313.15 K, m1 = 3.472 | – | 1683.4 | –
313.15 K, m1 = 4.075 | – | 1702.8 | –
313.15 K, m1 = 4.817 | – | 1727.1 | –
313.15 K, m1 = 5.224 | – | 1733.1 | –
313.15 K, m1 = 5.797 | – | 1742.3 | –
313.15 K, m1 = 6.34 | – | 1747.6 | –
313.15 K, m1 = 6.89 | – | 1751.5 | –
313.15 K, m1 = 7.349 | – | 1751.7 | –
313.3 K, m1 = 2.145 | 1277.4 | – | –
313.55 K, m1 = 0.1329 | 1011.2 | – | –
313.85 K, m1 = 0.6111 | 1080.1 | – | –
313.95 K, m1 = 1.906 | 1248.8 | – | –
313.95 K, m1 = 2.29 | 1293.8 | – | –
314 K, m1 = 5.8 | 1619.4 | – | –
314.1 K, m1 = 0.0875 | 1004.4 | – | –
314.15 K, m1 = 7.764 | 1746 | – | –
314.2 K, m1 = 2.344 | 1300 | – | –
314.25 K, m1 = 0.6405 | 1084 | – | –
314.35 K, m1 = 0.2466 | 1027.8 | – | –
314.35 K, m1 = 7.349 | 1722 | – | –
314.45 K, m1 = 0.3388 | 1041 | – | –
314.6 K, m1 = 2.91 | 1362 | – | –
314.7 K, m1 = 4.817 | 1542.3 | – | –
314.95 K, m1 = 1.551 | 1204.4 | – | –
314.95 K, m1 = 4.075 | 1477.2 | – | –
315.05 K, m1 = 1.113 | 1147.9 | – | –
315.05 K, m1 = 6.89 | 1692.9 | – | –
315.1 K, m1 = 3.472 | 1419.3 | – | –
315.9 K, m1 = 6.34 | 1655.7 | – | –
315.95 K, m1 = 0.1329 | 1010.2 | – | –
315.95 K, m1 = 7.349 | 1720.2 | – | –
316.15 K, m1 = 0.6111 | 1079 | – | –
316.2 K, m1 = 2.292 | 1292.7 | – | –
316.4 K, m1 = 0.6405 | 1082.8 | – | –
316.6 K, m1 = 5.224 | 1573.5 | – | –
316.75 K, m1 = 0.0875 | 1003.3 | – | –
316.8 K, m1 = 0.2466 | 1026.7 | – | –
316.8 K, m1 = 0.3388 | 1039.9 | – | –
316.85 K, m1 = 1.258 | 1166.1 | – | –
316.9 K, m1 = 1.551 | 1203.1 | – | –
317.15 K, m1 = 2.145 | 1274.9 | – | –
317.25 K, m1 = 1.113 | 1146.8 | – | –
317.5 K, m1 = 5.8 | 1616 | – | –
317.6 K, m1 = 7.764 | 1742.3 | – | –
317.65 K, m1 = 7.349 | 1718.4 | – | –
317.8 K, m1 = 2.29 | 1291.2 | – | –
317.9 K, m1 = 1.906 | 1246.3 | – | –
317.9 K, m1 = 2.344 | 1297.2 | – | –
318.15 K, m1 = 0.0875 | – | 1540.1 | –
318.15 K, m1 = 0.1329 | – | 1539.2 | 0.632
318.15 K, m1 = 0.2466 | – | 1542.8 | 0.655
318.15 K, m1 = 0.3388 | – | 1544.7 | 0.676
318.15 K, m1 = 0.6111 | – | 1555.1 | 0.738
318.15 K, m1 = 0.6405 | – | 1557.5 | 0.745
318.15 K, m1 = 1.113 | – | 1574.6 | 0.873
318.15 K, m1 = 1.258 | – | 1583.5 | 0.926
318.15 K, m1 = 1.551 | – | 1597.5 | 1.014
318.15 K, m1 = 1.906 | – | 1606.7 | 1.169
318.15 K, m1 = 2.145 | – | 1623.3 | 1.287
318.15 K, m1 = 2.29 | – | 1629.6 | 1.35
318.15 K, m1 = 2.292 | 1291.3 | 1631.3 | –
318.15 K, m1 = 2.344 | – | 1633.9 | 1.366
318.15 K, m1 = 2.91 | – | 1657.1 | 1.68
318.15 K, m1 = 3.472 | – | 1678.7 | 2.088
318.15 K, m1 = 4.075 | – | 1696.7 | 2.588
318.15 K, m1 = 4.817 | – | 1717.9 | 3.383
318.15 K, m1 = 5.224 | – | 1724.7 | 3.857
318.15 K, m1 = 5.797 | – | 1732 | 4.807
318.15 K, m1 = 6.34 | – | 1735.3 | 5.725
318.15 K, m1 = 6.89 | – | 1740.7 | 6.968
318.15 K, m1 = 7.349 | – | 1740.9 | 8.113
318.25 K, m1 = 0.6111 | 1077.9 | – | –
318.25 K, m1 = 4.817 | 1539 | – | –
318.3 K, m1 = 2.91 | 1359.3 | – | –
318.45 K, m1 = 6.89 | 1689.4 | – | –
318.6 K, m1 = 0.1329 | 1009.1 | – | –
318.65 K, m1 = 4.075 | 1474.2 | – | –
318.8 K, m1 = 0.6405 | 1081.7 | – | –
318.8 K, m1 = 3.472 | 1416.3 | – | –
318.85 K, m1 = 1.551 | 1202 | – | –
319.05 K, m1 = 0.0875 | 1002.2 | – | –
319.05 K, m1 = 0.3388 | 1038.8 | – | –
319.15 K, m1 = 1.113 | 1145.7 | – | –
319.2 K, m1 = 0.2466 | 1025.6 | – | –
319.3 K, m1 = 6.34 | 1652.5 | – | –
319.3 K, m1 = 7.764 | 1740.4 | – | –
320.05 K, m1 = 5.224 | 1570.1 | – | –
320.5 K, m1 = 0.6111 | 1076.8 | – | –
320.6 K, m1 = 4.075 | 1472.7 | – | –
320.75 K, m1 = 0.1329 | 1008.1 | – | –
320.85 K, m1 = 5.8 | 1612.8 | – | –
321 K, m1 = 1.258 | 1163.6 | – | –
321 K, m1 = 7.349 | 1714.9 | – | –
321.05 K, m1 = 2.145 | 1272.2 | – | –
321.25 K, m1 = 1.113 | 1144.5 | – | –
321.3 K, m1 = 0.0875 | 1001.2 | – | –
321.3 K, m1 = 0.3388 | 1037.8 | – | –
321.35 K, m1 = 0.2466 | 1024.5 | – | –
321.4 K, m1 = 2.29 | 1288.5 | – | –
321.65 K, m1 = 2.344 | 1294.6 | – | –
321.7 K, m1 = 1.906 | 1243.6 | – | –
321.75 K, m1 = 4.817 | 1535.8 | – | –
321.85 K, m1 = 6.89 | 1685.8 | – | –
322.05 K, m1 = 2.292 | 1288.5 | – | –
322.05 K, m1 = 2.91 | 1356.4 | – | –
322.4 K, m1 = 0.6111 | 1075.8 | – | –
322.5 K, m1 = 3.472 | 1413.3 | – | –
322.55 K, m1 = 7.764 | 1736.9 | – | –
322.6 K, m1 = 6.34 | 1649 | – | –
322.75 K, m1 = 1.551 | 1199.5 | – | –
322.95 K, m1 = 0.6405 | 1079.6 | – | –
323.15 K, m1 = 0.0875 | – | 1545.6 | –
323.15 K, m1 = 0.1329 | – | 1544.6 | 0.58
323.15 K, m1 = 0.2466 | – | 1547.7 | 0.601
323.15 K, m1 = 0.3388 | – | 1551.5 | 0.621
323.15 K, m1 = 0.6111 | – | 1560.9 | 0.679
323.15 K, m1 = 0.6405 | – | 1561 | 0.686
323.15 K, m1 = 1.113 | – | 1577.8 | 0.804
323.15 K, m1 = 1.258 | – | 1585.2 | 0.853
323.15 K, m1 = 1.551 | – | 1598.3 | 0.935
323.15 K, m1 = 1.906 | – | 1611 | 1.077
323.15 K, m1 = 2.145 | – | 1622.9 | 1.183
323.15 K, m1 = 2.29 | – | 1630 | 1.245
323.15 K, m1 = 2.292 | – | 1631.1 | –
323.15 K, m1 = 2.344 | – | 1628.1 | 1.254
323.15 K, m1 = 2.91 | – | 1651.1 | 1.537
323.15 K, m1 = 3.472 | – | 1675.6 | 1.908
323.15 K, m1 = 4.075 | – | 1690.4 | 2.349
323.15 K, m1 = 4.817 | – | 1707.1 | 3.051
323.15 K, m1 = 5.224 | – | 1716.7 | 3.464
323.15 K, m1 = 5.797 | – | 1723.6 | 4.283
323.15 K, m1 = 6.34 | – | 1724.9 | 5.066
323.15 K, m1 = 6.89 | – | 1729.5 | 6.121
323.15 K, m1 = 7.349 | – | 1729.7 | 7.071
324.25 K, m1 = 7.764 | 1734.9 | – | –
